{"source": "PubChem BioAssay AID2060360", "about": "(Molecular Pharmacology Branch, DTP, NCI, 2025)", "system": "282377-053-R-J1-PDC tumor spheroids, viability", "experiment": "Anticancer human tumor 282377-053-R-J1-PDC patient-derived colon adenocarcinoma cell line growth inhibition [TAK]", "conditions": "spheroids with HUVEC and MSC; for viability, T/C: stronger effect = lower value", "outline": "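Drug combinations, each paired with TAK-243 or ipatasertib, were tested on multi-cell spheroids of 60% malignant cells, 25% HUVEC and 15% hMSC. Top concentrations were at or near the clinical Cmax (10 microM if undetermined), decreasing by half-log; viability is given as % test/control.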", "note": "Where “and” joins values, the source holds several entries; their conditions need not be identical. Identical values can stand only once.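 Also: spheroids exposed to drugs for seven days before readout.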", "data": [{"smiles": "CC(C)n1nc(-c2ccc3oc(N)nc3c2)c2c(N)ncnc21", "note": "+ CC(C)NCC(C(=O)N1CCN(c2ncnc3c2C(C)CC3O)CC1)c1ccc(Cl)cc1", "values": [{"measurement": "IC50", "setting": "curve of first compound, second compound 0.3 µM", "result": "> 100", "unit": "nM"}, {"measurement": "IC50", "setting": "curve of first compound, second compound 0.949 µM", "result": 66.6, "unit": "nM"}, {"measurement": "IC50", "setting": "curve of first compound, second compound 3 µM", "result": 30.3, "unit": "nM"}, {"measurement": "IC50", "setting": "curve of first compound, second compound 9.49 µM", "result": 14.7, "unit": "nM"}, {"measurement": "IC50", "setting": "curve of first compound, second compound 30 µM", "result": 4.07, "unit": "nM"}, {"measurement": "viability, T/C", "setting": "second compound 0.3 µM, first compound 0.000316 µM", "result": 106, "unit": "%"}, {"measurement": "viability, T/C", "setting": "second compound 0.3 µM, first compound 0.001 µM", "result": 103, "unit": "%"}, {"measurement": "viability, T/C", "setting": "second compound 0.3 µM, first compound 0.00316 µM", "result": 95.7, "unit": "%"}, {"measurement": "viability, T/C", "setting": "second compound 0.3 µM, first compound 0.01 µM", "result": 88, "unit": "%"}, {"measurement": "viability, T/C", "setting": "second compound 0.3 µM, first compound 0.0316 µM", "result": 69.7, "unit": "%"}, {"measurement": "viability, T/C", "setting": "second compound 0.3 µM, first compound 0.1 µM", "result": 56.1, "unit": "%"}, {"measurement": "viability, T/C", "setting": "second compound 0.949 µM, first compound 0.000316 µM", "result": 92, "unit": "%"}, {"measurement": "viability, T/C", "setting": "second compound 0.949 µM, first compound 0.001 µM", "result": 93, "unit": "%"}, {"measurement": "viability, T/C", "setting": "second compound 0.949 µM, first compound 0.00316 µM", "result": 86.3, "unit": "%"}, {"measurement": "viability, T/C", "setting": "second compound 0.949 µM, first compound 0.01 µM", "result": 89.9, "unit": "%"}, {"measurement": "viability, T/C", "setting": "second compound 0.949 µM, first compound 0.0316 µM", "result": 71.7, "unit": "%"}, {"measurement": "viability, T/C", "setting": "second compound 0.949 µM, first compound 0.1 µM", "result": 38, "unit": "%"}, {"measurement": "viability, T/C", "setting": "second compound 3 µM, first compound 0.000316 µM", "result": 83.5, "unit": "%"}, {"measurement": "viability, T/C", "setting": "second compound 3 µM, first compound 0.001 µM", "result": 85.9, "unit": "%"}, {"measurement": "viability, T/C", "setting": "second compound 3 µM, first compound 0.00316 µM", "result": 79, "unit": "%"}, {"measurement": "viability, T/C", "setting": "second compound 3 µM, first compound 0.01 µM", "result": 71.5, "unit": "%"}, {"measurement": "viability, T/C", "setting": "second compound 3 µM, first compound 0.0316 µM", "result": 49.1, "unit": "%"}, {"measurement": "viability, T/C", "setting": "second compound 3 µM, first compound 0.1 µM", "result": 22.7, "unit": "%"}, {"measurement": "viability, T/C", "setting": "second compound 9.49 µM, first compound 0.000316 µM", "result": 81.4, "unit": "%"}, {"measurement": "viability, T/C", "setting": "second compound 9.49 µM, first compound 0.001 µM", "result": 77.3, "unit": "%"}, {"measurement": "viability, T/C", "setting": "second compound 9.49 µM, first compound 0.00316 µM", "result": 74.7, "unit": "%"}, {"measurement": "viability, T/C", "setting": "second compound 9.49 µM, first compound 0.01 µM", "result": 60.5, "unit": "%"}, {"measurement": "viability, T/C", "setting": "second compound 9.49 µM, first compound 0.0316 µM", "result": 30, "unit": "%"}, {"measurement": "viability, T/C", "setting": "second compound 9.49 µM, first compound 0.1 µM", "result": 14.8, "unit": "%"}, {"measurement": "viability, T/C", "setting": "second compound 30 µM, first compound 0.000316 µM", "result": 68.8, "unit": "%"}, {"measurement": "viability, T/C", "setting": "second compound 30 µM, first compound 0.001 µM", "result": 70.4, "unit": "%"}, {"measurement": "viability, T/C", "setting": "second compound 30 µM, first compound 0.00316 µM", "result": 56.5, "unit": "%"}, {"measurement": "viability, T/C", "setting": "second compound 30 µM, first compound 0.01 µM", "result": 25.9, "unit": "%"}, {"measurement": "viability, T/C", "setting": "second compound 30 µM, first compound 0.0316 µM", "result": 15.9, "unit": "%"}, {"measurement": "viability, T/C", "setting": "second compound 30 µM, first compound 0.1 µM", "result": 8.24, "unit": "%"}]}, {"smiles": "CC(C)n1nc(-c2ccc3oc(N)nc3c2)c2c(N)ncnc21", "values": [{"measurement": "viability, T/C", "setting": "compound 0.000316 µM", "result": "99.5% and 93.2%"}, {"measurement": "viability, T/C", "setting": "compound 0.001 µM", "result": "99% and 92.6%"}, {"measurement": "viability, T/C", "setting": "compound 0.00316 µM", "result": "99.7% and 91.3%"}, {"measurement": "viability, T/C", "setting": "compound 0.01 µM", "result": 89.3, "unit": "%"}, {"measurement": "viability, T/C", "setting": "compound 0.0316 µM", "result": "83% and 83.3%"}, {"measurement": "viability, T/C", "setting": "compound 0.1 µM", "result": "49.6% and 59.1%"}, {"measurement": "IC50", "setting": "curve of compound", "result": "> 100", "unit": "nM"}]}, {"smiles": "CC(C)NCC(C(=O)N1CCN(c2ncnc3c2C(C)CC3O)CC1)c1ccc(Cl)cc1", "note": "(stereo not drawn)", "values": [{"measurement": "viability, T/C", "setting": "compound 0.3 µM", "result": "100% [middle of 10 runs]"}, {"measurement": "viability, T/C", "setting": "compound 0.949 µM", "result": "92% [middle of 10 runs]"}, {"measurement": "viability, T/C", "setting": "compound 3 µM", "result": "84.9% [middle of 10 runs]"}, {"measurement": "viability, T/C", "setting": "compound 9.49 µM", "result": "81.9% [middle of 10 runs]"}, {"measurement": "viability, T/C", "setting": "compound 30 µM", "result": "69.3% [middle of 10 runs]"}, {"measurement": "IC50", "setting": "compound alone, run of 03/19/2020", "result": "> 30000", "unit": "nM"}]}]}
